US9085603B2, “Progesterone receptor antagonists” (Bayer Intellectual Property GmbH, priority 2010, dated 2015)

What was measured:
[1] = molecular target: T1, human progesterone receptor A (Homo sapiens, UniProt P06401); test: Progesterone receptor antagonistic effect in stably transfected SK-N-MC cells, MTV-LUC reporter (PR-A); assay type: cell-based; details: antagonism of 0.1 nmol/l promegestone, luciferase reporter, 24 hours
T1 construct: expressed in transfected cells; host or cells: SK-N-MC human neuroblastoma cells, stably transfected with pRChPR-A-neo and pMMTV-LUC
T1 sequence (P06401 1-769 isoform P06401-2): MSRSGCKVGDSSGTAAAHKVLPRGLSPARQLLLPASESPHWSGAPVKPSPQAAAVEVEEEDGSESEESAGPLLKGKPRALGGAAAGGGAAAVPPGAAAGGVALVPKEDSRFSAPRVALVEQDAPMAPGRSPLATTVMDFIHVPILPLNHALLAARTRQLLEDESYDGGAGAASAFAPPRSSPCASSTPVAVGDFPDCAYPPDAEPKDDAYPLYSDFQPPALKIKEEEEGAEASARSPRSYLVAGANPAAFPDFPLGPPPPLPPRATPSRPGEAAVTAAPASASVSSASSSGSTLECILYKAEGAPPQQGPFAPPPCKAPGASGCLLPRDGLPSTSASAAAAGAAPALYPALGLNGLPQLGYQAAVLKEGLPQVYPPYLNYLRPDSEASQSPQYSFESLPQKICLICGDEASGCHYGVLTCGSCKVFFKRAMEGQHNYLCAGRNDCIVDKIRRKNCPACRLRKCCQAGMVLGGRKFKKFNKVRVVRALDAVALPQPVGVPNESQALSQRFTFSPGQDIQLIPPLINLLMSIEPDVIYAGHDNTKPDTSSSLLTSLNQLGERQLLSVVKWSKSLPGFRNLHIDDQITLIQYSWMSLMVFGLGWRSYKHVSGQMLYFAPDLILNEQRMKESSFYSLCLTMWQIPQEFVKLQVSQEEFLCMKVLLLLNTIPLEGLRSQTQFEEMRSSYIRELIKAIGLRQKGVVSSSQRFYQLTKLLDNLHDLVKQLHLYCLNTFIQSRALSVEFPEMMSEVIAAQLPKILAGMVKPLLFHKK
Procedure: (§1) Progesterone Receptor Antagonistic Effect in Stable Transfectants of Human Neuroblastoma Cells (SK-N-MC cells) with the Human Progesterone A or Progesterone B Receptor and a MTV-LUC Reporter Construct
(§2) SK-N-MC cells (human neuroblastoma cells), which have been stably transfected with plasmids which express the human progesterone receptor B (pRChPR-B-neo) or the human progesterone receptor A (pRChPR-A-neo) and a reporter construct (pMMTV-LUC), were incubated for 24 hours either in the absence (negative control) or in the presence of increasing amounts of the particular test compound (0.01 nmol/l, 0.1 nmol/l, 1 nmol/l, 10 nmol/l, 100 nmol/l and 1 μmol/l) in order to determine the agonistic efficacy. As a positive control of the reporter gene induction, the cells were treated with the synthetic gestagen promegestone (0.01 nmol/l, 0.1 nmol/l, 1 nmol/l, 10 nmol/l, 100 nmol/l and 1 μmol/l). To determine the antagonistic activity, the cells were treated with 0.1 nmol/l of promegestone and additionally with increasing amounts of the particular test compound (0.01 nmol/l, 0.1 nmol/l, 1 nmol/l, 10 nmol/l, 100 nmol/l and 1 μmol/l). The activity of the reporter gene LUC (LUC=luciferase) was determined in the cell lysates and measured as RLU (relative light units). All measurement values are given as percentage efficacy and as EC50 or IC50 concentrations.

[2] = molecular target: T2, human progesterone receptor B (Homo sapiens, UniProt P06401); test: Progesterone receptor antagonistic effect in stably transfected SK-N-MC cells, MTV-LUC reporter (PR-B); assay type: cell-based; details: antagonism of 0.1 nmol/l promegestone, luciferase reporter, 24 hours
T2 construct: expressed in transfected cells; host or cells: SK-N-MC human neuroblastoma cells, stably transfected with pRChPR-B-neo and pMMTV-LUC
T2 sequence (P06401 1-933): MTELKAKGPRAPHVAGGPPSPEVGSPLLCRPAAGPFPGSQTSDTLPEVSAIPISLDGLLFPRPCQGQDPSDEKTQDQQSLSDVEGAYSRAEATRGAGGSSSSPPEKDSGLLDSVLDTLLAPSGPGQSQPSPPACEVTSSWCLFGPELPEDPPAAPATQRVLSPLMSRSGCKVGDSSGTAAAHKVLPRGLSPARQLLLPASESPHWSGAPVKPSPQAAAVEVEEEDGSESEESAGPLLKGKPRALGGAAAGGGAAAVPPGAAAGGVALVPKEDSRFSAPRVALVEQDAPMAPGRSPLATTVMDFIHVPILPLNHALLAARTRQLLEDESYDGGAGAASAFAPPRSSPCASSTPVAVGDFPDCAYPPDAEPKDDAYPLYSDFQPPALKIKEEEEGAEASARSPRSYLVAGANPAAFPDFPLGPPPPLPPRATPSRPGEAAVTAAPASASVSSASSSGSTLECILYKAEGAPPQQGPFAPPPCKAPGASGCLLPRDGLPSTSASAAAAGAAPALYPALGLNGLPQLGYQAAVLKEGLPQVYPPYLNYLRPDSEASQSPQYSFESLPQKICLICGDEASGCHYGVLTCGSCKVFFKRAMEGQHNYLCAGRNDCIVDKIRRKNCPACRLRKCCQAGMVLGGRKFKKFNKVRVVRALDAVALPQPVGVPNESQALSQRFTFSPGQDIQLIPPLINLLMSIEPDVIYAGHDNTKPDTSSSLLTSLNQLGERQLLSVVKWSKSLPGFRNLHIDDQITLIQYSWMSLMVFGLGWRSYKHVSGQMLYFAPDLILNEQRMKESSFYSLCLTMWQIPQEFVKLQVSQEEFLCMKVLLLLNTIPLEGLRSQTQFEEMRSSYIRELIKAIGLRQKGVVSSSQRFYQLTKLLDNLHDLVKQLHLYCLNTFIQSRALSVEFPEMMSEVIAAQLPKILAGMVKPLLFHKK
Procedure: as §1, §2

C[C@]12C[C@H](c3ccc(CN4CCC(C(=O)O)CC4)cc3)C3=C4CCC(=O)C=C4CC[C@H]3[C@@H]1CC[C@@]2(O)C(F)(F)C(F)(F)F [Example 15, 1-{4-[(11β,17β)-17-hydroxy-3-oxo-17-(pentafluoroethyl)estra-4,9-dien-11-yl]benzyl}piperidine-4-carboxylic acid]
IC50 [1]: 53 nM | IC50 [2]: 60 nM

C[C@]12C[C@H](c3ccc(CN4CCNCC4)cc3)C3=C4CCC(=O)C=C4CC[C@H]3[C@@H]1CC[C@@]2(O)C(F)(F)C(F)(F)F [Example 10, (11β,17β)-17-Hydroxy-17-(pentafluoroethyl)-11-[4-(piperazin-1-yl-methyl)phenyl]estra-4,9-dien-3-one]
IC50 [1]: 0.88 nM | IC50 [2]: 0.12 nM

C[C@]12C[C@H](c3ccc(CNCCc4ccccc4)cc3)C3=C4CCC(=O)C=C4CC[C@H]3[C@@H]1CC[C@@]2(O)C(F)(F)C(F)(F)F [Example 9, (11β,17β)-17-Hydroxy-17-(pentafluoroethyl)-11-(4-{[(2-phenylethyl)amino]methyl}phenyl)estra-4,9-dien-3-one]
IC50 [1]: 1.3 nM | IC50 [2]: 0.98 nM

CC(=O)N1CCCN(Cc2ccc([C@H]3C[C@@]4(C)C(CC[C@@]4(O)C(F)(F)C(F)(F)F)C4CCC5=CC(=O)CCC5=C43)cc2)CC1 (stereo partly drawn) [Example 17, (11β,17β)-11-{4-[(4-Acetyl-1,4-diazepan-1-yl)methyl]phenyl}-17-hydroxy-17-(pentafluoroethyl)estra-4,9-dien-3-one]
IC50 [1]: 0.56 nM | IC50 [2]: 0.57 nM

C[C@]12C[C@H](c3ccc(CN4CCCCC4)cc3)C3=C4CCC(=O)C=C4CC[C@H]3[C@@H]1CC[C@@]2(O)C(F)(F)C(F)(F)F [Example 4, (11β,17β)-17-Hydroxy-17-(pentafluoroethyl)-11-[4-(piperidin-1-ylmethyl)phenyl]estra-4,9-dien-3-one]
IC50 [1]: 1.4 nM | IC50 [2]: 2.1 nM

C[C@]12C[C@H](c3ccc(CN4CCN(C(=O)c5ccccc5)CC4)cc3)C3=C4CCC(=O)C=C4CCC3C1CC[C@@]2(O)C(F)(F)C(F)(F)F (stereo partly drawn) [Example 13, (11β,17β)-11-{4-[(4-Benzoylpiperazin-1-yl)methyl]phenyl}-17-hydroxy-17-(Pentafluoroethyl)estra-4,9-dien-3-one]
IC50 [1]: 0.092 nM | IC50 [2]: 0.1 nM

CN(C)Cc1ccc([C@H]2C[C@@]3(C)C(CC[C@@]3(O)C(F)(F)C(F)(F)F)C3CCC4=CC(=O)CCC4=C32)cc1 (stereo partly drawn) [Example 1, (11β,17β)-11-{4-[(Dimethylamino)methyl]phenyl}-17-hydroxy-17-(pentafluoroethyl)estra-4,9-dien-3-one]
IC50 [1]: 7.5 nM | IC50 [2]: 8.2 nM

C[C@]12C[C@H](c3ccc(CN4CCS(=O)(=O)CC4)cc3)C3=C4CCC(=O)C=C4CCC3C1CC[C@@]2(O)C(F)(F)C(F)(F)F (stereo partly drawn) [Example 8, (11β,17β)-11-{4-[(1,1-Dioxidothiomorpholin-4-yl)methyl]phenyl}-17-hydroxy-17-(pentafluoroethyl)estra-4,9-dien-3-one]
IC50 [1]: 0.1 nM | IC50 [2]: 0.3 nM

CC(C)(C)OC(=O)N1CCN(Cc2ccc([C@H]3C[C@@]4(C)[C@@H](CC[C@@]4(O)C(F)(F)C(F)(F)F)[C@@H]4CCC5=CC(=O)CCC5=C43)cc2)CC1 [Example 3, tert-Butyl 4-{4-[(11β,17β)-17-hydroxy-3-oxo-17-(pentafluoroethyl)estra-4,9-dien-11-yl]benzyl}piperazine-1-carboxylate]
IC50 [1]: 0.11 nM | IC50 [2]: 0.15 nM

CC(C)(C)C(=O)N1CCN(Cc2ccc([C@H]3C[C@@]4(C)C(CC[C@@]4(O)C(F)(F)C(F)(F)F)C4CCC5=CC(=O)CCC5=C43)cc2)CC1 (stereo partly drawn) [Example 14, (11β,17β)-11-(4-{[4-(2,2-Dimethylpropanoyl)piperazin-1-yl]methyl}phenyl)-17-hydroxy-17-(pentafluoroethyl)estra-4,9-dien-3-one]
IC50 [1]: 0.1 nM | IC50 [2]: 0.094 nM

COC(=O)C1CCN(Cc2ccc([C@H]3C[C@@]4(C)[C@@H](CC[C@@]4(O)C(F)(F)C(F)(F)F)[C@@H]4CCC5=CC(=O)CCC5=C43)cc2)CC1 [Example 5, Methyl 1-{4-[(11β,17β)-17-hydroxy-3-oxo-17-(pentafluoroethyl)estra-4,9-dien-11-yl]benzyl}piperidine-4-carboxylate]
IC50 [1]: 1.2 nM | IC50 [2]: 0.99 nM

C[C@]12C[C@H](c3ccc(CN4CCCNCC4)cc3)C3=C4CCC(=O)C=C4CCC3C1CC[C@@]2(O)C(F)(F)C(F)(F)F (stereo partly drawn) [Example 16, (11β,17β)-11-[4-(1,4-Diazepan-1-ylmethyl)phenyl]-17-hydroxy-17-(pentafluoroethyl)estra-4,9-dien-3-one]
IC50 [1]: 2.7 nM | IC50 [2]: 2.8 nM

C[C@]12C[C@H](c3ccc(CNc4cccnc4)cc3)C3=C4CCC(=O)C=C4CC[C@H]3[C@@H]1CC[C@@]2(O)C(F)(F)C(F)(F)F [Example 19, (11β,17β)-17-Hydroxy-17-(pentafluoroethyl)-11-{4-[(pyridin-3-ylamino)methyl]phenyl}estra-4,9-dien-3-one]
IC50 [1]: 0.94 nM

CNC(=O)CN1CCN(Cc2ccc([C@H]3C[C@@]4(C)[C@@H](CC[C@@]4(O)C(F)(F)C(F)(F)F)[C@@H]4CCC5=CC(=O)CCC5=C43)cc2)CC1 [Example 45, 2-(4-{4-[(11β,17β)-17-Hydroxy-3-oxo-17-(pentafluoroethyl)estra-4,9-dien-11-yl]benzyl}piperazin-1-yl)-N-methylacetamide]
IC50 [1]: 1.65 nM

C[C@]12C[C@H](c3ccc(CNc4ccc(C(=O)Nc5ccccc5)cc4)cc3)C3=C4CCC(=O)C=C4CC[C@H]3[C@@H]1CC[C@@]2(O)C(F)(F)C(F)(F)F [Example 54, 4-({4-[(11β,17β)-17-Hydroxy-3-oxo-17-(pentafluoroethyl)estra-4,9-dien-11-yl]benzyl}amino)-N-phenylbenzamide]
IC50 [1]: 1.28 nM

CN1CCN(Cc2ccc([C@H]3C[C@@]4(C)[C@@H](CC[C@@]4(O)C(F)(F)C(F)(F)F)[C@@H]4CCC5=CC(=O)CCC5=C43)cc2)CC1 [Example 2, (11β,17β)-17-Hydroxy-11-{4-[(4-methylpiperazin-1-yl)methyl]phenyl}-17-(pentafluoroethyl)estra-4,9-dien-3-one]
IC50 [2]: 2.8 nM

C[C@]12C[C@H](c3ccc(CN4CCN(CCN5CCCC5)CC4)cc3)C3=C4CCC(=O)C=C4CC[C@H]3[C@@H]1CC[C@@]2(O)C(F)(F)C(F)(F)F [Example 36, (11β,17β)-17-Hydroxy-17-(pentafluoroethyl)-11-[4-({4-[2-(pyrrolidin-1-yl)ethyl]piperazin-1-yl}methyl)phenyl]estra-4,9-dien-3-one]
IC50 [1]: 33.7 nM
